Laboratory results as given in patent EP4786465A1, “NOVEL COMPOUND, AND PHARMACEUTICAL COMPOSITION FOR PREVENTION OR TREATMENT OF CANCER OR TUMORS COMPRISING SAME” (Daewoong Pharmaceutical Co., Ltd., priority 2023, dated 2025).
pIC50: −log10 of the molar value. Read-outs that look alike come from different tables or passages of the source.

Tests used:
Format in all cases: cell-based
NCI-H28 = assay: Cell growth inhibition test (CellTiter-Glo Luminescent Cell Viability), NCI-H28; settings: Homo sapiens
Procedure: (§1) The cell growth for the compounds prepared in Examples was measured by CellTiter-Glo® Luminescednt Cell Viability (Promega, Catalog #G7571) method using NCI-H226 (addexbio), NCI-H28 (Korea Cell Line Bank) cell lines. This evaluation method is a method in which when luciferase enzyme is activated by ATP flowing out from living cells, it reacts with a luciferin substrate, and the enzyme activity at this time is measured to confirm cell viability.
(§2) Specifically, NCI-H226, and NCI-H28 cells were prepared in 100 µL of cell culture medium (RPMI medium, 10% FBS, 1% P/S, 4.5 g/L D-Glucose, 2.383 g/L HEPES Buffer, L-Glutamine, 1.5 g/L Sodium Bicarbonate, 110 mg/L Sodium pyruvate) in a white clear bottom 96-well microplate. The prepared plate was incubated in a 5% CO2 incubator at 37°C for 24 hours, and then the previously prepared compounds of Examples were finally treated at concentrations of 0.0005, 0.005, 0.05, 0.5 and 5 µM, which was repeated three times for all treatment solutions. The plates treated with the compounds of Examples were incubated in a 5% CO2 incubator at 37°C. 100 µL/well of the substrate aqueous solution containing luciferin was added to a white clear-bottom 96 well microplate, thereby initiating an enzyme reaction. The reaction was performed at room temperature in the dark for 10 minutes, and the luminescence was measured using a Flexstation3 multi-mode microplate reader. In accordance with the instructions for the CellTiter-Glo™ Luminescednt Cell Viability, the luciferase enzyme activity, which represents the amount of ATP, was measured by a chemiluminescence method, and the inhibitory activity of the compounds according to the present disclosure was calculated. The results of each compound were analyzed using Microsoft Excel, and the IC50 values were calculated using GraphPad Prism software.

NCI-H226 = assay: Cell growth inhibition test (CellTiter-Glo Luminescent Cell Viability), NCI-H226; settings: Homo sapiens
Procedure: as §1, §2

[1] = test system: transcription factor TEAD; assay: Activity inhibition test of transcription factor TEAD (ONE-Glo Luciferase assay, Hippo Pathway TEAD reporter-MCF7 recombinant cell line); settings: Homo sapiens; TEAD Reporter-MCF7 cells, 24 hours treatment, luciferase luminescence
Procedure: The transcription factor TEAD activity of the compounds prepared in the Examples was measured by the ONE-Glo™ Luciferase assay (Promega, Catalog #E6110) method using the Hippo Pathway TEAD reporter-MCF7 recombinant cell line (BPS Bioscience, Catalog #60618). Specifically, the TEAD Reporter-MCF7 cell line contains the firefly luciferase gene whose expression is regulated under the control of TEAD response elements in the MCF7, which is a human breast cancer cell line. In the cell line, a non-phosphorylated YAP/TAZ exists in the nucleus in a non-stressed condition, which continuously induces expression of the luciferase reporter. TEAD Reporter-MCF7 cells were prepared in 100 µL of cell culture medium (MEM medium, 10% FBS, 1% P/S, 400 µg/mL Geneticin, 1% […], 1 mM NA pyruvate, 10 µg/mL Insulin) in a white clear bottom 96-well microplate. The prepared plate was incubated in a 5% CO2 incubator at 37°C for 24 hours, and then the previously prepared compounds of Examples were finally treated at concentrations of 0.0005, 0.005, 0.05, 0.5 and 5 µM, which were repeated three times for all treatment solutions. The plates treated with the compounds of Examples were incubated in a 5% CO2 incubator at 37°C for 24 hours. 100 µL/well of the substrate aqueous solution containing luciferin was added to a white clear-bottom 96 well microplate, thereby initiating an enzyme reaction. The reaction was performed at room temperature for 5 minutes, and the luminescence (integration time 1000 ms) was measured using a Flexstation3 multi-mode microplate reader. In accordance with the instructions for the ONE-Glo™ Luciferase Assay, the luciferase enzyme activity, which represents the activity of the transcription factor TEAD, was measured by a chemiluminescence method, and the inhibitory activity of the compound according to the present disclosure was calculated. The results of each compound were analyzed using Microsoft Excel, and the IC50 values were calculated by GraphPad Prism software.

[2] = NCI-H28 cells, CellTiter-Glo, read-out: growth IC50 H28
[3] = NCI-H226 cells, CellTiter-Glo, read-out: growth IC50 H226

SMILES	pIC50 (NCI-H28; [2])	pIC50 (NCI-H226; [3])	pIC50 [1]	pIC50 (NCI-H28; NCI-H28, read-out: growth IC50 H28)	pIC50 (NCI-H226; NCI-H226, read-out: growth IC50 H226)
C=CC(=O)N1Cc2cc(Nc3ccc(C(F)(F)F)cc3)c(-c3cn(C)cn3)cc2C1 [Example 1, 1-(5-(1-methyl-1H-imidazol4-yl)-6-((4-(trifluoromethyl)phenyl)amino)isoindolin-2-yl)prop-2-en-1-one]	5.52	7.67	7.37		
CNS(=O)(=O)N1Cc2cc(Nc3ccc(C(F)(F)F)cc3)c(-c3cn(C)cn3)cc2C1 [Example 2, N-methyl-5-(1-methyl-1H-imidazol-4-yl)-6-((4-(trifluoromethyl)phenyl)amino)isoindoline-2-sulfonamide]	5.28	7.05	5.84		
C=CC(=O)N1CCc2c(ccc(Nc3ccc(C(F)(F)F)cc3)c2-c2cn(C)cn2)C1 [Example 3, 1-(5-(1-methyl-1H-imidazol-4-yl)-6-((4-(trifluoromethyl)phenyl)amino)-3,4-dihydroisoquinolin-2(1H)-yl)prop-2-en-1-one]	6.02	8.01	7.59		
CNS(=O)(=O)N1CCc2c(ccc(Nc3ccc(C(F)(F)F)cc3)c2-c2cn(C)cn2)C1 [Example 4, N-methyl-5-(1-methyl-1H-imidazol-4-yl)-6-((4-(trifluoromethyl)phenyl)amino)-3,4-dihydroisoquinoline-2(1H)-sulfonamide]	5.00	5.87	5.32		
C=CC(=O)N1Cc2ccc(Nc3ccc(C(F)(F)F)cc3)c(-c3cn(C)cn3)c2C1 [Example 5, 1-(4-(1-methyl-1H-imidazol-4-yl)-5-((4-(trifluoromethyl)phenyl)amino)isoindolin-2-yl)prop-2-en-1-one]	5.70	6.92	6.22		
CNS(=O)(=O)N1Cc2ccc(Nc3ccc(C(F)(F)F)cc3)c(-c3cn(C)cn3)c2C1 [Example 6, N-methyl-4-(1-methyl-1H-imidazol-4-yl)-5-((4-(trifluoromethyl)phenyl)amino)isoindoline-2-sulfonamide]	5.18	6.03	5.81		
C=CC(=O)N1CCc2c(ccc(Nc3ccc(C(F)(F)F)cc3)c2-c2cn3c(n2)CCC3)C1 [Example 7, 1-(5-(6,7-dihydro-5H-pyrrolo[1,2-a]imidazol-2-yl)-6-((4-(trifluoromethyl)phenyl)amino)-3,4-dihydroisoquinolin-2(1H)-yl)prop-2-en-1-one]	5.66	7.42	7.84		
Cn1cnc(-c2cc3c(cc2Nc2ccc(C(F)(F)F)cc2)CN(CC#N)C3)c1 [Example 8, 2-(5-(1-methyl-1H-imidazol-4-yl)-6-((4-(trifluoromethyl)phenyl)amino)isoindolin-2-yl)acetonitrile]			5.03	5.00	5.82
C=CC(=O)N1CCc2c(ccc(Nc3ccc(C(F)(F)F)c(F)c3)c2-c2cn(C)cn2)C1 [Example 9, 1-(6-((3-fluoro-4-(trifluoromethyl)phenyl)amino)-5-(1-methyl-1H-imidazol-4-yl)-3,4-dihydroisoquinolin-2(1H)-yl)prop-2-en-1-one]	6.11	7.44	7.47		
C=CC(=O)N1CCc2c(ccc(Nc3ccc(F)cc3)c2-c2cn(C)cn2)C1 [Example 10, 1-(6-((4-fluorophenyl)amino)-5-(1-methyl-1H-imidazol-4-yl)-3,4-dihydroisoquinolin-2(1H)-yl)prop-2-en-1-one]	5.82	7.00	7.30		
C=CC(=O)N1Cc2cc(Nc3ccc(F)cc3)c(-c3cn(C)cn3)cc2C1 [Example 11, 1-(5-((4-fluorophenyl)amino)-6-(1-methyl-1H-imidazol-4-yl)isoindolin-2-yl)prop-2-en-1-one]			5.72		
C=CC(=O)N1CCc2ccc(Nc3ccc(F)cc3)c(-c3cn(C)cn3)c2C1 [Example 12, 1-(7-((4-fluorophenyl)amino)-8-(1-methyl-1H-imidazol-4-yl)-3,4-dihydroisoquinolin-2(1H)-yl)prop-2-en-1-one]			< 5.00		
C=CC(=O)N1CCc2c(ccc(Nc3cc(F)cc(F)c3)c2-c2cn(C)cn2)C1 [Example 13, 1-(6-((3,5-difluorophenyl)amino)-5-(1-methyl-1H-imidazol-4-yl)-3,4-dihydroisoquinolin-2(1H)-yl)prop-2-en-1-one]	5.70	7.26	7.55		
C=CC(=O)N1CCc2c(ccc(Nc3cc(F)c(F)c(F)c3)c2-c2cn(C)cn2)C1 [Example 14, 1-(5-(1-methyl-1H-imidazol-4-yl)-6-((3,4,5-trifluorophenyl)amino)-3,4-dihydroisoquinolin-2(1H)-yl)prop-2-en-1-one]	5.74	7.78	8.17		
C=CC(=O)N1CCc2c(ccc(Nc3ccc(Cl)cc3)c2-c2cn(C)cn2)C1 [Example 15, 1-(6-((4-chlorophenyl)amino)-5-(1-methyl-1H-imidazol-4-yl)-3,4-dihydroisoquinolin-2(1H)-yl)prop-2-en-1-one]	5.62	7.51	8.23		
C=CC(=O)N1CCc2c(ccc(Nc3ccc(Br)cc3)c2-c2cn(C)cn2)C1 [Example 16, 1-(6-((4-bromophenyl)amino)-5-(1-methyl-1H-imidazol-4-yl)-3,4-dihydroisoquinolin-2(1H)-yl)prop-2-en-1-one]	6.20	7.45	8.09		
C=CC(=O)N1CCc2c(ccc(Nc3cc(F)c(C(F)(F)F)c(F)c3)c2-c2cn(C)cn2)C1 [Example 17, 1-(6-((3,5-difluoro-4-(trifluoromethyl)phenyl)amino)-5-(1-methyl-1H-imidazol-4-yl)-3,4-dihydroisoquinolin-2(1H)-yl)prop-2-en-1-one]	5.48	8.02	8.07		
C=CC(=O)N1Cc2cc(Nc3cc(F)c(F)c(F)c3)c(-c3cn(C)cn3)cc2C1 [Example 18, 1-(5-(1-methyl-1H-imidazol-4-yl)-6-((3,4,5-trifluorophenyl)amino)isoindolin-2-yl)prop-2-en-1-one]			6.62		
C=CC(=O)N1Cc2cc(Nc3ccc(Cl)cc3)c(-c3cn(C)cn3)cc2C1 [Example 19, 1-(5-((4-chlorophenyl)amino)-6-(1-methyl-1H-imidazol-4-yl)isoindolin-2-yl)prop-2-en-1-one]			6.93		
C=CC(=O)N1CCc2c(ccc(Nc3cccc(C(F)(F)F)c3)c2-c2cn(C)cn2)C1 [Example 20, 1-(5-(1-methyl-1H-imidazol-4-yl)-6-((3-(trifluoromethyl)phenyl)amino)-3,4-dihydroisoquinolin-2(1H)-yl)prop-2-en-1-one]	5.95	6.86	7.35		
C=CC(=O)N1CCc2c(ccc(Nc3cc(Cl)cc(C(F)(F)F)c3)c2-c2cn(C)cn2)C1 [Example 22, 1-(6-((3-chloro-5-(trifluoromethyl)phenyl)amino)-5-(1-methyl-1H-imidazol-4-yl)-3,4-dihydroisoquinolin-2(1H)-yl)prop-2-en-1-one]			6.62		
C=CC(=O)N1CCc2c(ccc(Nc3cc(C(F)(F)F)cc(C(F)(F)F)c3)c2-c2cn(C)cn2)C1 [Example 23, 1-(6-((3,5-bis(trifluoromethyl)phenyl)amino)-5-(1-methyl-1H-imidazol-4-yl)-3,4-dihydroisoquinolin-2(1H)-yl)prop-2-en-1-one]			< 5.30		
